1 molecule from the NIST ThermoML archive (doi:10.1016/j.tca.2010.12.008) can be followed below.

Molecules are shown by their SMILES. Numbers after ± are expanded uncertainties.

For the series the following is noted: Crystal 2; visual observation.

Turning to `CC(C)(C)P(=O)(O)C(C)(C)C` [di-tert-butylphosphinic acid], the Triple point temperature is given as 37.8 ± 0.5 K.
